From article PMC3183052, “Immunoprotectivity of HLA-A2 CTL Peptides Derived from Respiratory Syncytial Virus Fusion Protein in HLA-A2 Transgenic Mouse” (PLoS ONE, 2011)

How the values were obtained:
CD8+ T lymphocytes = assay: IFN-γ intracellular staining of CD8+ splenocytes; assay type: cell-based, mouse; settings: splenocytes of peptide-immunized mice stimulated with 10 µg/mL peptide for five hours; flow cytometry
Protocol: For IFN-γ intracellular staining, splenocytes from peptide- or vehicle-immunized mice were stimulated in vitro with the respective peptides (peptide 3, 13, 14, and 23) (10 µg/mL) for five hours, washed with 1× PBS, and stained with anti-CD8 antibody conjugated with fluorescein isothiocyanate (FITC) (BD Biosciences) for 30 minutes, followed by subsequent fixation and permeabilization following the instructions of eBioscience fixation and permeabilization kit. The splenocytes were further stained for intracellular IFN-γ using PE-conjugated anti-IFN-γ antibody (BD Biosciences) for another 30 minutes. After washing, the samples were analyzed using flow cytometry.
Figure 2 Epitope-specific CD4^+ and CD8^+ T-cell activation in peptide-immunized HLA-A*0201 transgenic mice. Splenocytes were isolated on day 17 from mice immunized twice subcutaneously with the peptides 3, 13, 14, 17, 23, or vehicle at day 0 and day 10. The splenocytes were labeled with CFSE and cultured in the presence or absence of 10 µg/mL of the respective peptides for 8 days. Proliferation of CD4^+ (A) or CD8^+ (B) lymphocytes in response to the different CD8 epitopes was analyzed by flow cytometry using anti-CD4 or CD8 antibodies conjugated with PE-Cy5. Results are presented as cell division index (CDI) as described in the Materials and Methods. […]

[1] = system: peptide-loaded dendritic cells from HLA-Tg B6 mice; assay: In vitro CTL assay (CFSE/7-AAD) with pulmonary effector lymphocytes; assay type: cell-based, mouse; settings: pulmonary effector lymphocytes of immunized, RSV-challenged mice; peptide-loaded CFSE-labeled DCs; E:T 10:1 and 50:1; 7-AAD/CFSE flow cytometry
Protocol: Dendritic cells (DCs) isolated from HLA-A*0201-Tg B6 mice were used as target cells for CTL assay. Briefly, tibia were isolated from 6–8 weeks old mice and rinsed with 75% alcohol before their incubation with lymphocyte culture medium (LCM, RPMI containing 5% FBS, 20 mM HEPES, 50 µM 2-mecaptoenthanol, 1× P/S). The myeloid tissues were removed from the tibia with LCM and filtrated through 40 µm cell strainer (BD Falcon). The filtrates were centrifuged at 1200 rpm for 5 minutes and the cell pellet was resuspended in 2 mL RBC lysis solution (eBioscience), and incubated for 5 minutes followed by addition of 10 mL of 1× PBS buffer to stop lysis. […]
A non-radioactive assay for cell-mediated cytotoxicity using a green fluorescent probe CFSE to label target cells in combination with 7-amino-actinomycin D (7AAD), a red fluorescent probe to label dead effectors and target cells, was used to assess the presence of RSV F protein-specific CTLs in spleens or lungs of the immunized animals. […] CFSE was measured in FL1 channel and 7-AAD in FL3 channel. The percentage of CFSE/7-AAD double positive target cells (i.e., DCs cell death) was analyzed. […]
Figure 5 Induction of pulmonary IFN-γ and CTL activity in peptide immunized transgenic mice challenged with RSV. At day 4 post RSV infection, lung homogenates were prepared and the following were measured. […]

YMLTNSELL [peptide 14, HLA-A*0201-restricted 9-mer synthetic peptide from F protein of RSV-B1 strain]
proportion of IFN-γ+/CD8+ T lymphocytes (CD8+ T lymphocytes): marginally increased
CTL activity, target cell lysis [1]: efficient in target cell lysis
